This assay has as its target T1, LXRβ (Homo sapiens, UniProt P55055).
T1 construct: Co-transfection expression plasmids, comprising full-length LXRα (pCMX-h LXRα[…] or LXRβ (pCMX-hLXRβ)); expressed in transfected cells; host or cells: CV-1 African Green Monkey Kidney Cells
T1 sequence (P55055 1-460): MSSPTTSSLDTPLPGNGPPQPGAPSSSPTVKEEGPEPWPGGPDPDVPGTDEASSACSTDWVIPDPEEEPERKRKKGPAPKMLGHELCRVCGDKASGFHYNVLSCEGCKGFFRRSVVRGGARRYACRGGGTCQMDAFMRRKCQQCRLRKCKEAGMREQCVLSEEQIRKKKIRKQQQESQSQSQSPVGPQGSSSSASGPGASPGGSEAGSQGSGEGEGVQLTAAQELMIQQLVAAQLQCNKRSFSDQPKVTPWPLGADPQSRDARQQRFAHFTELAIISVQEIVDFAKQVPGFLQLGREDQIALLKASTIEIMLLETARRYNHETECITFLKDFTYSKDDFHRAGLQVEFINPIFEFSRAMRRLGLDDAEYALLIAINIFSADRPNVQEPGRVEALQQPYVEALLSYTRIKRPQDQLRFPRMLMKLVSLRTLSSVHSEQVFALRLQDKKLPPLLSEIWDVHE
T1 sequence (P19793 1-462 partner): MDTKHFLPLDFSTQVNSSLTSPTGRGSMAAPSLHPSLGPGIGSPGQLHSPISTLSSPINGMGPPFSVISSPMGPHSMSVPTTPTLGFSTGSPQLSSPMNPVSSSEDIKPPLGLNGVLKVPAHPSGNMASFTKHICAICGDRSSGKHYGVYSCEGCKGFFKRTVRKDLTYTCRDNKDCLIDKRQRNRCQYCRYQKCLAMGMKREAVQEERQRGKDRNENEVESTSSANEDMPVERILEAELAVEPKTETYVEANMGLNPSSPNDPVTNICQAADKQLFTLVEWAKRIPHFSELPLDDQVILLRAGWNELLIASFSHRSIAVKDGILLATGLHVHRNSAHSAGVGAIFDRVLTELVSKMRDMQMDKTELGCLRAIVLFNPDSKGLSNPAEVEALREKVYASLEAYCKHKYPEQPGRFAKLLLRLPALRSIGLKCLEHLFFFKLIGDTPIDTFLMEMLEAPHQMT
Nature of the assay: Co-transfection assay (LXRE luciferase reporter), LXRβ. It is filed as cell-based. On the set-up: % Efficacy: concentration or dose not given beside the values. Particulars: for pEC50: CV-1 cells transfected with pCMX-hLXRβ and LXREx1-Tk-Luciferase, 20 hours incubation; for Emax: read-out: % Efficacy. Put shortly: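 Luciferase signal from an LXREx1-Tk reporter was measured after transfected CV-1 cells (full-length hLXRβ, endogenous RXR) were treated with compounds for 20 h at 37 °C, ≤0.5% DMSO. EC50 came from four-parameter fits of 11-point ½-log curves; % efficacy versus a reference agonist maximum.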
Background: Reporter assays use an easily measured gene product as a stand-in for the process of interest.

Where [1] appears, read: LXRβ co-transfection, relative to high control 1-(2,4-difluorobenzyl)-2-oxo-6-(4-phenoxyphenyl)-4-(trifluoromethyl)-1,2-dihydropyridine-3-carbonitrile.

The values below come from patent publication US9834542B2, “LXR modulators” (BRISTOL-MYERS SQUIBB COMPANY, priority 2013, dated 2017).

By pEC50 is commonly meant the EC50 on a negative log10 scale, so that one unit is a factor of ten.

pEC50: −log10 of the molar value.

The compound `COc1ncc(-c2oc(C)nc2-c2cc(-c3cc(F)c(CO)c(S(C)(=O)=O)c3)ccc2-n2cc(C(F)(F)F)nc2C)cc1F` [Example 440, (3-fluoro-3′-(5-(5-fluoro-6-methoxypyridin-3-yl)-2-methyloxazol-4-yl)-4′-(2-methyl-4-(trifluoromethyl)-1H-imidazol-1-yl)-5-(methylsulfonyl)biphenyl-4-yl)methanol] gave a pEC50 of 6.67. Also, under setting [1], the Emax was found to be 75%.
Compound `Cc1nc(-c2cc(-c3cccc(S(C)(=O)=O)c3)ccc2-n2cc(C(F)(F)F)nc2C)c(-c2cccc(Cl)n2)o1` [Example 441, 5-(6-chloropyridin-2-yl)-2-methyl-4-(4-(2-methyl-4-(trifluoromethyl)-1H-imidazol-1-yl)-3′-(methylsulfonyl)biphenyl-3-yl)oxazole] had a pEC50 of 5.88. The Emax under setting [1] worked out at 38%.
For `Cc1nc(-c2cc(-c3cccc(C(=O)N(C)C)c3)ccc2-n2cc(C(F)(F)F)nc2C)c(-c2ccc(OC(F)F)c(F)c2)o1` [Example 442, 3′-(5-(4-(difluoromethoxy)-3-fluorophenyl)-2-methyloxazol-4-yl)-N,N-dimethyl-4′-(2-methyl-4-(trifluoromethyl)-1H-imidazol-1-yl)biphenyl-3-carboxamide] the same measures were 6.14 and 58%.
For `Cc1nc(-c2cc(-c3cccc(S(C)(=O)=O)c3)ccc2-n2cc(C(F)(F)F)nc2C)c(-c2ccc3c(c2)OCCO3)o1` [Example 443, 5-(2,3-dihydrobenzo[b][1,4]dioxin-6-yl)-2-methyl-4-(4-(2-methyl-4-(trifluoromethyl)-1H-imidazol-1-yl)-3′-(methylsulfonyl)biphenyl-3-yl)oxazole] the same measures were 6.63 and 75%.
For `Cc1nc(-c2cc(-c3cc(F)c(CO)c(S(C)(=O)=O)c3)ccc2-n2cc(C(F)(F)F)nc2C)c(-c2ccc3c(c2)OCCO3)o1` [Example 444, (3′-(5-(2,3-dihydrobenzo[b][1,4]dioxin-6-yl)-2-methyloxazol-4-yl)-3-fluoro-4′-(2-methyl-4-(trifluoromethyl)-1H-imidazol-1-yl)-5-(methylsulfonyl)biphenyl-4-yl)methanol] the same measures were 6.90 and 74%.
As for `Cc1nc(-c2cc(-c3ccc(C)c(S(C)(=O)=O)c3)ccc2-n2cc(C(F)(F)F)nc2C)c(-c2ccc3c(c2)OC(F)(F)O3)o1` [Example 445, 5-(2,2-difluorobenzo[d][1,3]dioxol-5-yl)-2-methyl-4-(4′-methyl-4-(2-methyl-4-(trifluoromethyl)-1H-imidazol-1-yl)-3′-(methylsulfonyl)biphenyl-3-yl)oxazole], the pEC50 is 7.44. The Emax under setting [1] worked out at 69%.
For `Cc1nc(-c2cc(-c3cccc(C4(C(N)=O)CC4)c3)ccc2-n2cc(C(F)(F)F)nc2C)c(-c2ccc3c(c2)OC(F)(F)O3)o1` [Example 446, 1-(3′-(5-(2,2-difluorobenzo[d][1,3]dioxol-5-yl)-methyloxazol-4-yl)-4′-(2-methyl-4-(trifluoromethyl)-1H-imidazol-1-yl)biphenyl-3-yl)cyclopropanecarboxamide] the same measures were 6.08 and 51%.
For `Cc1nc(-c2cc(-c3cccc(S(C)(=O)=O)c3)ccc2-n2cc(C(F)(F)F)nc2C)c(-c2cc(F)cc(F)c2)o1` [Example 447] the same measures were 6.57 and 64%.
For `Cc1nc(-c2cc(-c3cc(F)c(CO)c(S(C)(=O)=O)c3)ccc2-n2cc(C(F)(F)F)nc2C)c(-c2cc(F)cc(F)c2)o1` [Example 448, (3′-(5-(3,5-difluorophenyl)-2-methyloxazol-4-yl)-3-fluoro-4′-(2-methyl-4-(trifluoromethyl)-1H-imidazol-1-yl)-5-(methylsulfonyl)biphenyl-4-yl)methanol] the same measures were 7.02 and 58%.
With `Cc1nc(-c2cc(-c3cccc(S(C)(=O)=O)c3)ccc2-n2cc(C(F)(F)F)nc2C)c(-c2cc(F)cc(Cl)c2)o1` [Example 449, 5-(3-chloro-5-fluorophenyl)-2-methyl-4-(4-(2-methyl-4-(trifluoromethyl)-1H-imidazol-1-yl)-3′-(methylsulfonyl)biphenyl-3-yl)oxazole], the pEC50 is 6.74. Moreover, under setting [1], the Emax worked out at 57%.
For `Cc1nc(-c2cc(-c3cc(F)c(CO)c(S(C)(=O)=O)c3)ccc2-n2cc(C(F)(F)F)nc2C)c(-c2cc(F)cc(Cl)c2)o1` [Example 450, (3′-(5-(3-chloro-5-fluorophenyl)-2-methyloxazol-4-yl)-3-fluoro-4′-(2-methyl-4-(trifluoromethyl)-1H-imidazol-1-yl)-5-(methylsulfonyl)biphenyl-4-yl)methanol] the same measures were 7.35 and 49%.
For `Cc1cc(-c2oc(C)nc2-c2cc(-c3cccc(S(C)(=O)=O)c3)ccc2-n2cc(C(F)(F)F)nc2C)cc(Cl)n1` [Example 451, 5-(2-chloro-6-methylpyridin-4-yl)-2-methyl-4-(4-(2-methyl-4-(trifluoromethyl)-1H-imidazol-1-yl)-3′-(methylsulfonyl)biphenyl-3-yl)oxazole] the same measures were 6.90 and 61%.
In turn, `Cc1cc(-c2oc(C)nc2-c2cc(-c3cc(F)c(CO)c(S(C)(=O)=O)c3)ccc2-n2cc(C(F)(F)F)nc2C)cc(Cl)n1` [Example 452, (3′-(5-(2-chloro-6-methylpyridin-4-yl)-2-methyloxazol-4-yl)-3-fluoro-4′-(2-methyl-4-(trifluoromethyl)-1H-imidazol-1-yl)-5-(methylsulfonyl)biphenyl-4-yl)methanol] had a pEC50 of 7.08. Under setting [1], the “% Efficacy” value was 55%.
For `Cc1nc(-c2cc(-c3cccc(S(C)(=O)=O)c3)ccc2-n2cc(C(F)(F)F)nc2C)c(-c2ccc(F)cc2F)o1` [Example 453, 5-(2,4-difluorophenyl)-2-methyl-4-(4-(2-methyl-4-(trifluoromethyl)-1H-imidazol-1-yl)-3′-(methylsulfonyl)biphenyl-3-yl)oxazole], the pEC50 is 7.15. The Emax under setting [1] turned out to be 43%.
For `Cc1nc(-c2cc(-c3cc(F)c(CO)c(S(C)(=O)=O)c3)ccc2-n2cc(C(F)(F)F)nc2C)c(-c2ccc(F)cc2F)o1` [Example 454, (3′-(5-(2,4-difluorophenyl)-2-methyloxazol-4-yl)-3-fluoro-4′-(2-methyl-4-(trifluoromethyl)-1H-imidazol-1-yl)-5-(methylsulfonyl)biphenyl-4-yl)methanol] the same measures were 7.43 and 38%.
As to `Cc1nc(-c2cc(-c3cccc(S(C)(=O)=O)c3)ccc2-n2cc(C(F)(F)F)nc2C)c(-c2cc(Cl)cc(Cl)c2)o1` [Example 455, 5-(3,5-dichlorophenyl)-2-methyl-4-(4-(2-methyl-4-(trifluoromethyl)-1H-imidazol-1-yl)-3′-(methylsulfonyl)biphenyl-3-yl)oxazole], the pEC50 is 6.72. Besides, the Emax under setting [1] was 43%.
For `Cc1nc(-c2cc(-c3cc(F)c(CO)c(S(C)(=O)=O)c3)ccc2-n2cc(C(F)(F)F)nc2C)c(-c2cc(Cl)cc(Cl)c2)o1` [Example 456, (3′-(5-(3,5-dichlorophenyl)-2-methyloxazol-4-yl)-3-fluoro-4′-(2-methyl-4-(trifluoromethyl)-1H-imidazol-1-yl)-5-(methylsulfonyl)biphenyl-4-yl)methanol] the same measures were 7.24 and 45%.
For `Cc1nc(-c2cc(-c3cc(F)c(CO)c(S(C)(=O)=O)c3)ccc2-n2cc(C(F)(F)F)nc2C)c(-c2cc(F)c(OC(F)F)c(F)c2)o1` [Example 457, (3′-(5-(4-(difluoromethoxy)-3,5-difluorophenyl)-2-methyloxazol-4-yl)-3-fluoro-4′-(2-methyl-4-(trifluoromethyl)-1H-imidazol-1-yl)-5-(methylsulfonyl)biphenyl-4-yl)methanol] the same measures were 7.24 and 76%.
For `Cc1nc(-c2cc(-c3cccc(S(C)(=O)=O)c3)ccc2-n2cc(C(F)(F)F)nc2C)c(-c2ccc(Cl)c(OC(F)F)c2)o1` [Example 458, 5-(4-chloro-3-(difluoromethoxy)phenyl)-2-methyl-4-(4-(2-methyl-4-(trifluoromethyl)-1H-imidazol-1-yl)-3′-(methylsulfonyl)biphenyl-3-yl)oxazole] the same measures were 6.40 and 62%.
